Experimental data as given in patent US11795145B2, “Methane-production inhibitor composition and method for inhibiting methane production” (KUMIAI CHEMICAL INDUSTRY CO., LTD., priority 2020, dated 2023).

Tests used:
[1] = tested on: paddy field soil microorganisms; test: Test Example 2: methane-production inhibition test by various methane-production inhibitors in flooded paddy field soil (headspace GC); format: cell-based; conditions: for Methane-production amount (mg/L) 21 days after treatment / Methane-production amount (mg/L) 28 days after treatment: 0.5 mg/kg dry soil; for Methane-production amount (mg/L) 21 days after treatment: 21 days static incubation at 30° C., untreated plot 19.6; for Methane-production amount (mg/L) 28 days after treatment: 28 days static incubation at 30° C., untreated plot 44.3; for Methane-production amount compared to untreated plot: 0.5 mg/kg dry soil treatment
Experimental: In a glass vial (21.5 mL volume) for headspace analysis, 4.0 g of paddy field soil (provisional specific gravity 1.18 g/cm^3) was weighed, and 8 mL of distilled water was added. In this flooded soil, plots to which 40 μL of acetone solution containing 50 ppm of the compounds listed in Table 2 below were added (0.5 mg/kg dry soil (equivalent to 590 g/ha)), respectively, were provided as Examples 4 to 9. As Comparative Example 2, an untreated plot to which 40 μL of acetone was added was provided. After 100 μL of a culture solution of paddy field soil microorganisms was added to these glass vials, the vials were tightly sealed using septum and aluminum caps, and allowed to stand at 30° C. for static incubation. After 21 and 28 days of incubation treatment, 0.5 mL of gas was collected from a headspace in a glass vial sample using a gas tight syringe and analyzed for methane production by gas chromatography (GC).

[2] = tested on: paddy field soil microorganisms; test: Test Example 3: comparative test of methane-production inhibition with existing inhibitor BES in flooded paddy field soil (headspace GC); format: cell-based; conditions: 0.5 mg/kg dry soil; for Methane-production amount (mg/L) 21 days after treatment: 21 days static incubation at 30° C., untreated plot 69.3; for Methane-production amount (mg/L) 28 days after treatment: 28 days static incubation at 30° C., untreated plot 119.2
Experimental: In a glass vial (21.5 mL volume) for headspace analysis, 4.0 g of paddy field soil (provisional specific gravity 1.18 g/cm^3) was weighed, and 8 mL of distilled water was added. In this flooded soil, a plot to which 20 μL of acetone solution containing 100 ppm of Compound I-1 was added (0.5 mg/kg dry soil (equivalent to 590 g/ha)) is provided as Example 10, a plot to which 20 μL of an aqueous solution containing 100 ppm of BES (a comparative compound) and acetone was added (0.5 mg/kg dry soil) is provided as Comparative Example 3, and an untreated plot to which 20 μL of acetone was added is provided as Comparative Example 4. After 100 μL of a culture solution of paddy field soil microorganisms was added to these glass vials, the vials were tightly sealed using septum and aluminum caps, and allowed to stand at 30° C. for static incubation. After 21 and 28 days of incubation treatment, 0.5 mL of gas was collected from a headspace in a glass vial sample using a gas tight syringe and analyzed for methane production by gas chromatography (GC). The comparative compound, BES (CAS No.: 4263-52-9; 2-Bromoethanesulfonate), is an existing methane-production inhibitor and a product manufactured by Tokyo Chemical Industry Co., Ltd.

[3] = tested on: methane-producing bacteria; conditions: 80 mg/kg; paddy fields during rice cultivation; cited from earlier work
[4] = tested on: paddy field soil microorganisms; test: Test Example 1: methane-production inhibition test by Compound I-1 in flooded paddy field soil (headspace GC); format: cell-based; conditions: for Methane-production amount (mg/L) 21 days after treatment: 21 days static incubation at 30° C., untreated plot 34.0; for Methane-production amount (mg/L) 28 days after treatment: 28 days static incubation at 30° C., untreated plot 38.9
Experimental: In a glass vial (21.5 mL volume) for headspace analysis, 4.0 g of paddy field soil (provisional specific gravity 1.18 g/cm^3) was weighed, and 8 mL of distilled water was added. In this flooded soil, a plot to which 40 μL of 10 ppm Compound I-1-containing acetone solution was added (0.1 mg/kg dry soil (equivalent to 118 g/ha)) was provided as Example 1, and a plot to which 20 μL of 100 ppm Compound I-1-containing acetone solution was added (0.5 mg/kg dry soil (equivalent to 590 g/ha)) and a plot to which 40 μL of 100 ppm Compound I-1-containing acetone solution was added (1 mg/kg dry soil (equivalent to 1180 g/ha)) were provided as Examples 2 and 3. As Comparative Example 1, an untreated plot to which 40 μL of acetone was added was provided. After 100 μL of a culture solution of paddy field soil microorganisms was added to these glass vials, the vials were tightly sealed using septum and aluminum caps, and allowed to stand at 30° C. for static incubation. After 21 and 28 days of incubation treatment, 0.5 mL of gas was collected from a headspace in a glass vial sample using a gas tight syringe and analyzed for methane production by gas chromatography (GC). The amount treatment (g) per 1 ha was converted according to the OECD Guideline Test No. 307 issued in 2002, based on the provisional specific gravity of the paddy field soil used.

[5] = tested on: dairy cattle; conditions: feed treated with from 40 to 80 mg/kg; cited from earlier work

## O=S(=O)(CCl)c1ccc(Br)cc1 [Compound I-3]
[1]
  Methane-production amount (mg/L) 21 days after treatment: 5.3 mg/L
  Methane-production amount (mg/L) 28 days after treatment: 14.7 mg/L

## O=S(=O)([O-])CCBr.[Na+] [BES, 2-Bromoethanesulfonate, reference compound]
[2]
  Methane-production amount compared to untreated plot: reduced
  Methane-production amount (mg/L) 21 days after treatment: 32.9 mg/L
  Methane-production amount (mg/L) 28 days after treatment: 80.5 mg/L
[3]
  Reduction of methane emissions compared to a control area: 49%

## O=C(Oc1ccc(OS(=O)(=O)CCl)cc1)c1ccccc1 [Compound I-1]
[4]; 0.1 mg/kg dry soil (Example 1)
  Methane-production amount compared to untreated plot: reduced
[4]; 0.1 mg/kg dry soil
  Methane-production amount (mg/L) 21 days after treatment: 9.1 mg/L
  Methane-production amount (mg/L) 28 days after treatment: 21.3 mg/L
[4]; 0.5 mg/kg dry soil and above (Examples 2 and 3)
  Methane-production reduction effect compared to untreated plot: higher reduction effect
[4]; 0.5 mg/kg dry soil
  Methane-production amount (mg/L) 21 days after treatment: 2.8 mg/L
  Methane-production amount (mg/L) 28 days after treatment: 3.7 mg/L
[4]; 1 mg/kg dry soil
  Methane-production amount (mg/L) 21 days after treatment: 2.5 mg/L
  Methane-production amount (mg/L) 28 days after treatment: 3.1 mg/L
[1]
  Methane-production amount compared to untreated plot: particularly high reduction effect
  Methane-production amount (mg/L) 21 days after treatment: 2.5 mg/L
  Methane-production amount (mg/L) 28 days after treatment: 3.8 mg/L
[2]
  Methane reduction amount relative to the reduction amount due to the comparative compound: significantly greater
  Methane-production amount compared to untreated plot: reduced
  Methane-production amount (mg/L) 21 days after treatment: 13.4 mg/L
  Methane-production amount (mg/L) 28 days after treatment: 34.2 mg/L

## O=S(=O)(CCl)c1ccc(O)cc1 [Compound I-4]
[1]
  Methane-production amount (mg/L) 21 days after treatment: 5.4 mg/L
  Methane-production amount (mg/L) 28 days after treatment: 16.7 mg/L

## CS(=O)(=O)Oc1ccc(O)cc1 [Compound I-6]
[1]
  Methane-production amount (mg/L) 21 days after treatment: 16.7 mg/L
  Methane-production amount (mg/L) 28 days after treatment: 28.3 mg/L

## O=S(=O)(CCl)Oc1ccc(O)cc1 [Compound I-2]
[1]
  Methane-production amount compared to untreated plot: particularly high reduction effect
  Methane-production amount (mg/L) 21 days after treatment: 2.5 mg/L
  Methane-production amount (mg/L) 28 days after treatment: 4.4 mg/L

## O=S(=O)(CO)c1ccc(Br)cc1 [Compound I-5]
[1]
  Methane-production amount (mg/L) 21 days after treatment: 15.7 mg/L
  Methane-production amount (mg/L) 28 days after treatment: 24.3 mg/L

## O=[N+]([O-])OCCCO [Compound 3-NOP, 3-nitrooxypropanol]
[5]
  Reduction of methane emissions from dairy cattle: 30%
